The text below walks through data of patent US6699895B2, “2-aminothiazoline derivatives and process for preparing the same” (Aventis Pharma S.A., priority 2000, dated 2004).

Molecules are shown by their SMILES.

As a reminder, the melting point is the temperature of the solid-liquid transition.

For `Cl.NC1=N[C@H](Cc2cccs2)CS1`, the melting point is 125 to 127 °C.
